Measured values: patent publication US20230085307A1, “PYRIDAZINONE COMPOUND AND HERBICIDE” (NISSAN CHEMICAL CORPORATION, priority 2019, published 2023)

What was measured:
lambsquarters [1] = assay: Test Example 4: herbicidal effect by soil treatment (Table 19, symbol O); format: in vivo, lambsquarters (Chenopodium album); conditions: amount of applied herbicide 320 g/ha
How it was run: (§1)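 Pre-emergence style soil spray: seeds under ~1.5 cm sterilized diluvial soil received a uniform coat of emulsion diluted to the predetermined herbicide amount. Greenhouse 25–30° C; readout at week three on previously defined criteria.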

chickweed = assay: Test Example 4: herbicidal effect by soil treatment (Table 19, symbol P); format: in vivo, common chickweed (Stellaria media); conditions: amount of applied herbicide 320 g/ha
How it was run: as §1

Italian ryegrass = assay: Test Example 4: herbicidal effect by soil treatment (Table 19, symbol K); format: in vivo, Italian ryegrass (Lolium multiflorum); conditions: amount of applied herbicide 320 g/ha
How it was run: as §1

lambsquarters [2] = assay: Test Example 5: herbicidal effect by foliage application, plastic box (Table 20, symbol O); format: in vivo, lambsquarters (Chenopodium album); conditions: foliage application, 320 g/ha, three weeks after application
How it was run: (§2)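 Plants were sown into sterilized diluvial soil under about 1.5 cm cover and kept in a greenhouse at 25° C. to 30° C. Fourteen days on, foliage received an even spray of the diluted emulsion. Herbicidal or crop effect was judged three weeks afterwards.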

wild oat [3] = assay: Test Example 4: herbicidal effect by soil treatment (Table 19, symbol I); format: in vivo, wild oat (Avena fatua); conditions: amount of applied herbicide 320 g/ha
How it was run: as §1

windgrass [4] = assay: Test Example 5: herbicidal effect by foliage application, plastic box (Table 20, symbol L); format: in vivo, windgrass (Apera spica-venti); conditions: foliage application, 320 g/ha, three weeks after application
How it was run: as §2

Japanese bulrush = assay: Test Example 2: herbicidal activity, application during weed generation under submerged conditions (Table 17, symbol B); format: in vivo, Japanese bulrush (Schoenoplectus juncoides); conditions: AAH 320 g/ha; application during weed generation, submerged conditions
How it was run: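 In this pot test, flooded alluvial soil (water depth 4 cm) holds all three species sown as a mixture. Once seedlings have one to two leaves, the compound's emulsion, thinned with water to the intended dose, is poured on the water; grading follows after three weeks on the earlier criteria.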

green foxtail [5] = assay: Test Example 5: herbicidal effect by foliage application, plastic box (Table 20, symbol G); format: in vivo, green foxtail (Setaria viridis); conditions: foliage application, 320 g/ha, three weeks after application
How it was run: as §2

windgrass [6] = assay: Test Example 4: herbicidal effect by soil treatment (Table 19, symbol L); format: in vivo, windgrass (Apera spica-venti); conditions: amount of applied herbicide 320 g/ha
How it was run: as §1

late watergrass = assay: Test Example 1: herbicidal activity, application before weed generation under submerged conditions (Table 16, symbol A); format: in vivo, late watergrass (Echinochloa oryzicola); conditions: amount of applied herbicide 320 g/ha
How it was run: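 Alluvial soil was flooded to 4 cm depth, weed seeds were sown mixed and 2.5-leaf rice seedlings were transplanted. On sowing day, the compound's emulsion, diluted in water to a set dose, was applied to the water surface. Plants grew at 25–30 °C and were scored 0–5 after three weeks.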

velvetleaf = assay: Test Example 5: herbicidal effect by foliage application, plastic box (Table 20, symbol M); format: in vivo, velvetleaf (Abutilon theophrasti); conditions: foliage application, 320 g/ha, three weeks after application
How it was run: as §2

persian speedwell = assay: Test Example 5: herbicidal effect by foliage application, plastic box (Table 20, symbol R); format: in vivo, Persian speedwell (Veronica persica); conditions: foliage application, 320 g/ha, three weeks after application
How it was run: as §2

redroot pigweed = assay: Test Example 5: herbicidal effect by foliage application, plastic box (Table 20, symbol N); format: in vivo, redroot pigweed (Amaranthus retroflexus); conditions: foliage application, 320 g/ha, three weeks after application
How it was run: as §2

green foxtail [7] = assay: Test Example 4: herbicidal effect by soil treatment (Table 19, symbol G); format: in vivo, green foxtail (Setaria viridis); conditions: amount of applied herbicide 320 g/ha
How it was run: as §1

barnyard grass = assay: Test Example 4: herbicidal effect by soil treatment (Table 19, symbol H); format: in vivo, barnyard grass (Echinochloa crus-galli); conditions: amount of applied herbicide 320 g/ha
How it was run: as §1

wild oat [8] = assay: Test Example 5: herbicidal effect by foliage application, plastic box (Table 20, symbol I); format: in vivo, wild oat (Avena fatua); conditions: foliage application, 320 g/ha, three weeks after application
How it was run: as §2

Chinese sprangletop = assay: Test Example 3: herbicidal effect by foliage application, Wagner pot (Table 18, symbol D); format: in vivo, chinese sprangletop (Leptochloa chinensis); conditions: 320 g/ha
How it was run: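 Plants were sown in alluvial soil held under 0.1–0.5 cm standing water and grown 14 days in a greenhouse at 25–30 °C. An emulsifiable formulation, water-diluted to the set dose, was then sprayed onto the foliage, and effects were scored three weeks later using previously defined criteria.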

Structure (SMILES)	O: lambsquarters, herbicidal effect grade (lambsquarters [1])	P: chickweed, herbicidal effect grade (chickweed)	K: Italian ryegrass, herbicidal effect grade (Italian ryegrass)	O: lambsquarters, herbicidal effect grade (lambsquarters [2])	I: wild oat, herbicidal effect grade (wild oat [3])	L: windgrass, herbicidal effect grade (windgrass [4])	herbicidal effect rating, B: Japanese bulrush (Japanese bulrush)	G: green foxtail, herbicidal effect grade (green foxtail [5])	L: windgrass, herbicidal effect grade (windgrass [6])	Herbicidal effect, A: late watergrass (late watergrass)	M: velvetleaf, herbicidal effect grade (velvetleaf)	R: persian speedwell, herbicidal effect grade (persian speedwell)	N: redroot pigweed, herbicidal effect grade (redroot pigweed)	G: green foxtail, herbicidal effect grade (green foxtail [7])	H: barnyard grass, herbicidal effect grade (barnyard grass)	I: wild oat, herbicidal effect grade (wild oat [8])	herbicidal effect on Chinese sprangletop (D) (Chinese sprangletop)
CCCCCOc1ccc2c(-c3c(O)c(C)nn(C)c3=O)c(-c3ccccc3OC)sc2c1 [3-108]	4 (Herbicidal rate of 70% or more and less than 90%)	0 (Herbicidal rate of 5% or less (almost no effect))	0 (Herbicidal rate of 5% or less (almost no effect))	4 (Herbicidal rate of 70% or more and less than 90%)	0 (Herbicidal rate of 5% or less (almost no effect))	0 (Herbicidal rate of 5% or less (almost no effect))	2 (Herbicidal rate of 20% or more and less than 40%)	3 (Herbicidal rate of 40% or more and less than 70%)	0 (Herbicidal rate of 5% or less (almost no effect))	3 (Herbicidal rate of 40% or more and less than 70%)	2 (Herbicidal rate of 20% or more and less than 40%)	4 (Herbicidal rate of 70% or more and less than 90%)	5 (Herbicidal rate of 90% or more (almost completely withered))	0 (Herbicidal rate of 5% or less (almost no effect))	0 (Herbicidal rate of 5% or less (almost no effect))	0 (Herbicidal rate of 5% or less (almost no effect))	2 (Herbicidal rate of 20% or more and less than 40%)
COc1ccccc1-c1sc2cc(OC3CCCC3)ccc2c1-c1c(O)c(C)nn(C)c1=O [3-109]	5 (Herbicidal rate of 90% or more (almost completely withered))	1 (Herbicidal rate of 5% or more and less than 20%)	4 (Herbicidal rate of 70% or more and less than 90%)	3 (Herbicidal rate of 40% or more and less than 70%)	5 (Herbicidal rate of 90% or more (almost completely withered))	4 (Herbicidal rate of 70% or more and less than 90%)	3 (Herbicidal rate of 40% or more and less than 70%)	5 (Herbicidal rate of 90% or more (almost completely withered))	0 (Herbicidal rate of 5% or less (almost no effect))	5 (Herbicidal rate of 90% or more (almost completely withered))	4 (Herbicidal rate of 70% or more and less than 90%)	5 (Herbicidal rate of 90% or more (almost completely withered))	5 (Herbicidal rate of 90% or more (almost completely withered))	4 (Herbicidal rate of 70% or more and less than 90%)	1 (Herbicidal rate of 5% or more and less than 20%)	0 (Herbicidal rate of 5% or less (almost no effect))	4 (Herbicidal rate of 70% or more and less than 90%)
COc1ccccc1-c1sc2cc(OC(F)F)ccc2c1-c1c(O)c(C)nn(C)c1=O [3-113]	5 (Herbicidal rate of 90% or more (almost completely withered))	5 (Herbicidal rate of 90% or more (almost completely withered))	5 (Herbicidal rate of 90% or more (almost completely withered))	5 (Herbicidal rate of 90% or more (almost completely withered))	0 (Herbicidal rate of 5% or less (almost no effect))	5 (Herbicidal rate of 90% or more (almost completely withered))	2 (Herbicidal rate of 20% or more and less than 40%)	5 (Herbicidal rate of 90% or more (almost completely withered))	5 (Herbicidal rate of 90% or more (almost completely withered))	4 (Herbicidal rate of 70% or more and less than 90%)	5 (Herbicidal rate of 90% or more (almost completely withered))	5 (Herbicidal rate of 90% or more (almost completely withered))	5 (Herbicidal rate of 90% or more (almost completely withered))	5 (Herbicidal rate of 90% or more (almost completely withered))	5 (Herbicidal rate of 90% or more (almost completely withered))	4 (Herbicidal rate of 70% or more and less than 90%)	3 (Herbicidal rate of 40% or more and less than 70%)
COc1ccccc1-c1sc2cc(OCc3ccccc3)ccc2c1-c1c(O)c(C)nn(C)c1=O [3-118]	1 (Herbicidal rate of 5% or more and less than 20%)	0 (Herbicidal rate of 5% or less (almost no effect))	3 (Herbicidal rate of 40% or more and less than 70%)	5 (Herbicidal rate of 90% or more (almost completely withered))	0 (Herbicidal rate of 5% or less (almost no effect))	5 (Herbicidal rate of 90% or more (almost completely withered))	2 (Herbicidal rate of 20% or more and less than 40%)	3 (Herbicidal rate of 40% or more and less than 70%)	3 (Herbicidal rate of 40% or more and less than 70%)	3 (Herbicidal rate of 40% or more and less than 70%)	2 (Herbicidal rate of 20% or more and less than 40%)	5 (Herbicidal rate of 90% or more (almost completely withered))	5 (Herbicidal rate of 90% or more (almost completely withered))	0 (Herbicidal rate of 5% or less (almost no effect))	0 (Herbicidal rate of 5% or less (almost no effect))	3 (Herbicidal rate of 40% or more and less than 70%)	0 (Herbicidal rate of 5% or less (almost no effect))
COCCOc1ccc2c(-c3c(O)c(C)nn(C)c3=O)c(-c3ccccc3OC)sc2c1 [3-121]	5 (Herbicidal rate of 90% or more (almost completely withered))	5 (Herbicidal rate of 90% or more (almost completely withered))	5 (Herbicidal rate of 90% or more (almost completely withered))	5 (Herbicidal rate of 90% or more (almost completely withered))	3 (Herbicidal rate of 40% or more and less than 70%)	5 (Herbicidal rate of 90% or more (almost completely withered))	3 (Herbicidal rate of 40% or more and less than 70%)	5 (Herbicidal rate of 90% or more (almost completely withered))	5 (Herbicidal rate of 90% or more (almost completely withered))	5 (Herbicidal rate of 90% or more (almost completely withered))	5 (Herbicidal rate of 90% or more (almost completely withered))	5 (Herbicidal rate of 90% or more (almost completely withered))	5 (Herbicidal rate of 90% or more (almost completely withered))	5 (Herbicidal rate of 90% or more (almost completely withered))	5 (Herbicidal rate of 90% or more (almost completely withered))	5 (Herbicidal rate of 90% or more (almost completely withered))	4 (Herbicidal rate of 70% or more and less than 90%)
